Reference: patent US20240409585A1, “MACROCYCLIC IMMUNOMODULATORS” (priority 2021, published 2024)
Bridge positions count the residues as written; N and C are the ends. Square brackets hold non-standard residues; d marks the D form. Peptide text beside a SMILES is read from it. * marks the point of attachment. ξ: configuration not given here. Phe(4-CONH2) = NC(=O)c1ccc(C[C@H](N)C(=O)O)cc1; Phe(4-COOH) = N[C@@H](Cc1ccc(C(=O)O)cc1)C(=O)O; Bip = N[C@@H](Cc1ccc(-c2ccccc2)cc1)C(=O)O; Phe(3-CN) = N#Cc1cccc(C[C@H](N)C(=O)O)c1; Phe(3-OMe) = COc1cccc(C[C@H](N)C(=O)O)c1; Phe(3-F) = N[C@@H](Cc1cccc(F)c1)C(=O)O; Phe(3-Me) = Cc1cccc(C[C@H](N)C(=O)O)c1; Val(3-OH) = CC(C)(O)[C@H](N)C(=O)O; aIle = CC[C@@H](C)[C@H](N)C(=O)O; 3Pal = N[C@@H](Cc1cccnc1)C(=O)O; 4Pal = N[C@@H](Cc1ccncc1)C(=O)O; Cha = N[C@@H](CC1CCCCC1)C(=O)O; Cit = NC(=O)NCCC[C@H](N)C(=O)O; Ile(3ξ) = CCC(C)[C@H](N)C(=O)O; Thr(3ξ) = CC(O)[C@H](N)C(=O)O; Carboxymethyl = O=C(O)C*; NMeA = CN[C@@H](C)C(=O)O; Orn = NCCC[C@H](N)C(=O)O; Dab = NCC[C@H](N)C(=O)O; Dap = NC[C@H](N)C(=O)O; ξV = CC(C)C(N)C(=O)O; ξC = NC(CS)C(=O)O

target: T1, PE-labeled human PD-L1-Ig binding to Jurkat cell line over-expressing human PD-1 (Jurkat-PD-1) (Homo sapiens, UniProt Q15116); test: Jurkat-PD-1 Cell Binding High-Content Screening Assay (CBA): Method 1; settings: Jurkat-hPD-1 cells, PE-labeled PD-L1-Ig 20 nM final; read-out: Jurkat HPDL1 PD1 IC50 (uM) (Method 1)
T1 construct: expressed in transfected cells; host or cells: Jurkat
T1 sequence (Q15116 25-288): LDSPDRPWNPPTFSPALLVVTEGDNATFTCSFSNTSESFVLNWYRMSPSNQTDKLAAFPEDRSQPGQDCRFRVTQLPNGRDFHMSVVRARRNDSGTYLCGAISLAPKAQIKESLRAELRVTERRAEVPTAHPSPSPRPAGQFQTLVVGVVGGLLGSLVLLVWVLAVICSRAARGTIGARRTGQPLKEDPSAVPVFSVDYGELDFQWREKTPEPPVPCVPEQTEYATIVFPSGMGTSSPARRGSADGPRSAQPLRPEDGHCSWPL

Row | Compound | IC50
1 | CC[C@@H](C)[C@@H]1NC(=O)[C@H](Cc2ccc(-c3ccccc3)cc2)NC(=O)[C@H](CC(C)C)NC(=O)[C@H](Cc2c[nH]c3ccccc23)NC(=O)[C@H](CC(=O)O)NC(=O)[C@H](Cc2ccc(C(=O)O)cc2)NC(=O)[C@H](Cc2ccc(OCC(=O)O)cc2)NC(=O)CSC[C@@H](C(=O)N[C@@H](CCCCN)C(N)=O)NC(=O)[C@H](CN)NC(=O)C(C(C)C)NC(=O)[C@H](CC(C)C)NC(=O)[C@H](CC(N)=O)NC(=O)[C@@H](CC(C)C)NC(=O)[C@H](C)N(C)C1=O (stereo partly drawn) [Compound 2108] ({CH2CO}-Y(Carboxymethyl)[Phe(4-COOH)]DWL[Bip][aIle][NMeA][dL]NL[ξV][Dap]CK-NH2; thioether N-14) | 0.11 µM
2 | CC(C)C[C@@H]1NC(=O)[C@H](Cc2c[nH]c3ccccc23)NC(=O)[C@H](CC(=O)O)NC(=O)[C@H](Cc2ccc(O)cc2)NC(=O)[C@H](Cc2ccccc2)NC(=O)CSC[C@@H](C(=O)N[C@@H](C)C(N)=O)NC(=O)[C@H](CO)NC(=O)[C@H](C(C)C)NC(=O)[C@H](CC(C)C)NC(=O)[C@H](CCCNC(=N)N)NC(=O)[C@@H](CC(C)C)NC(=O)[C@H](C)N(C)C(=O)[C@H](CCCNC(=N)N)NC(=O)[C@H](Cc2ccc(-c3ccccc3)cc2)NC1=O [Compound 1780] ({CH2CO}-FYDWL[Bip]R[NMeA][dL]RLVSCA-NH2; thioether N-14) | 0.08 µM
3 | Cc1cccc(C[C@@H]2NC(=O)[C@H](CC(=O)O)NC(=O)[C@H](Cc3ccc(OCC(=O)O)cc3)NC(=O)[C@H](Cc3ccncc3)NC(=O)CSC[C@@H](C(=O)N[C@@H](CCN)C(N)=O)NC(=O)[C@H](CO)NC(=O)[C@H](C(C)C)NC(=O)[C@H](CC3CCCCC3)NC(=O)[C@H](CCN)NC(=O)[C@@H](CC(C)C)NC(=O)[C@H](C)N(C)C(=O)[C@H](Cc3ccc(OCC(=O)O)cc3)NC(=O)[C@H](Cc3ccc(-c4ccccc4)cc3)NC(=O)[C@H](Cc3ccc(OCC(=O)O)cc3)NC2=O)c1 [Compound 1860] ({CH2CO}-[4Pal]Y(Carboxymethyl)D[Phe(3-Me)]Y(Carboxymethyl)[Bip]Y(Carboxymethyl)[NMeA][dL][Dab][Cha]VSC[Dab]-NH2; thioether N-14) | 0.01 µM
4 | CC(C)C[C@@H]1NC(=O)[C@H](CCN)NC(=O)[C@@H](CC(C)C)NC(=O)[C@H](C)N(C)C(=O)[C@H](CCCNC(N)=O)NC(=O)[C@H](Cc2ccc(-c3ccccc3)cc2)NC(=O)[C@H](C(C)C)NC(=O)[C@H](Cc2c[nH]c3ccccc23)NC(=O)[C@H](CC(=O)O)NC(=O)[C@H](Cc2cccc(F)c2)NC(=O)[C@H](CC(N)=O)NC(=O)CSC[C@@H](C(=O)N[C@@H](C)C(N)=O)NC(=O)[C@H]([C@@H](C)O)NC(=O)[C@H](C(C)C)NC1=O [Compound 1315] ({CH2CO}-N[Phe(3-F)]DWV[Bip][Cit][NMeA][dL][Dab]LVTCA-NH2; thioether N-14) | 0.06 µM
5 | CC(C)C[C@@H]1NC(=O)[C@H](CCN)NC(=O)[C@@H](CC(C)C)NC(=O)[C@H](C)N(C)C(=O)[C@H](C(C)C)NC(=O)[C@H](Cc2ccc(-c3ccccc3)cc2)NC(=O)[C@H](C(C)C)NC(=O)[C@H](Cc2c[nH]c3ccccc23)NC(=O)[C@H](CC(=O)O)NC(=O)[C@H](Cc2cccc(C#N)c2)NC(=O)[C@H](CC(N)=O)NC(=O)CSC[C@@H](C(=O)N[C@@H](C)C(N)=O)NC(=O)[C@H]([C@@H](C)O)NC(=O)[C@H](C(C)C)NC1=O [Compound 1380] ({CH2CO}-N[Phe(3-CN)]DWV[Bip]V[NMeA][dL][Dab]LVTCA-NH2; thioether N-14) | 0.02 µM
6 | CC[C@H](C)[C@@H]1NC(=O)[C@H](Cc2ccc(-c3ccccc3)cc2)NC(=O)[C@H](C(C)C)NC(=O)[C@H](Cc2c[nH]c3ccccc23)NC(=O)[C@H](CC(=O)O)NC(=O)[C@H](Cc2cccc(C#N)c2)NC(=O)[C@H](CC(N)=O)NC(=O)CSC[C@@H](C(=O)N[C@@H](C)C(N)=O)NC(=O)[C@H]([C@@H](C)O)NC(=O)[C@H](C(C)C)NC(=O)[C@H](CC(C)C)NC(=O)[C@H](CCN)NC(=O)[C@@H](CC(C)C)NC(=O)[C@H](C)N(C)C1=O [Compound 1397] ({CH2CO}-N[Phe(3-CN)]DWV[Bip]I[NMeA][dL][Dab]LVTCA-NH2; thioether N-14) | 0.02 µM
7 | CC(C)C[C@@H]1NC(=O)[C@H](CCN)NC(=O)[C@@H](CC(C)C)NC(=O)[C@H](C)N(C)C(=O)[C@H](CCCNC(N)=O)NC(=O)[C@H](Cc2ccc(-c3ccccc3)cc2)NC(=O)[C@H](C(C)C)NC(=O)[C@H](Cc2c[nH]c3ccccc23)NC(=O)[C@H](CC(=O)O)NC(=O)[C@H](Cc2ccc(O)cc2)NC(=O)[C@H](CCCN)NC(=O)CSC[C@@H](C(=O)N[C@@H](C)C(N)=O)NC(=O)[C@H]([C@@H](C)O)NC(=O)[C@H](C(C)C)NC1=O [Compound 1347] ({CH2CO}-[Orn]YDWV[Bip][Cit][NMeA][dL][Dab]LVTCA-NH2; thioether N-14) | 0.03 µM
8 | COc1cccc(C[C@@H]2NC(=O)[C@H](CN)NC(=O)CSC[C@@H](C(=O)N[C@@H](C)C(N)=O)NC(=O)[C@H]([C@@H](C)O)NC(=O)[C@H](C(C)C)NC(=O)[C@H](CC(C)C)NC(=O)[C@H](CCN)NC(=O)[C@@H](CC(C)C)NC(=O)[C@H](C)N(C)C(=O)[C@H](Cc3cnc[nH]3)NC(=O)[C@H](Cc3ccc(-c4ccccc4)cc3)NC(=O)[C@H](C(C)C)NC(=O)[C@H](Cc3c[nH]c4ccccc34)NC(=O)[C@H](CC(=O)O)NC2=O)c1 [Compound 1423] ({CH2CO}-[Dap][Phe(3-OMe)]DWV[Bip]H[NMeA][dL][Dab]LVTCA-NH2; thioether N-14) | 0.07 µM
9 | CCC(C)[C@@H]1NC(=O)[C@H](Cc2ccc(-c3ccccc3)cc2)NC(=O)[C@H](C(C)C)NC(=O)[C@H](Cc2c[nH]c3ccccc23)NC(=O)[C@H](CC(=O)O)NC(=O)[C@H](Cc2ccc(O)cc2)NC(=O)[C@H](Cc2ccncc2)NC(=O)CSCC(C(=O)N[C@@H](CCCN)C(=O)O)NC(=O)[C@H](C(C)O)NC(=O)[C@H](C(C)C)NC(=O)[C@H](CC2CCCCC2)NC(=O)[C@H](CC(N)=O)NC(=O)[C@@H](CC(C)C)NC(=O)[C@H](C)N(C)C1=O (stereo partly drawn) [Compound 2214] ({CH2CO}-[4Pal]YDWV[Bip][Ile(3ξ)][NMeA][dL]N[Cha]V[Thr(3ξ)][ξC][Orn]-OH; thioether N-14) | 0.02 µM
10 | CC[C@H](C)[C@@H]1NC(=O)[C@H](Cc2ccc(-c3ccccc3)cc2)NC(=O)[C@H](C(C)C)NC(=O)[C@H](Cc2c[nH]c3ccccc23)NC(=O)[C@H](CC(=O)O)NC(=O)[C@H](Cc2ccncc2)NC(=O)[C@H](CN)NC(=O)CSC[C@@H](C(=O)N[C@@H](C)C(N)=O)NC(=O)[C@H]([C@@H](C)O)NC(=O)[C@H](C(C)C)NC(=O)[C@H](CC(C)C)NC(=O)[C@H](CCN)NC(=O)[C@@H](CC(C)C)NC(=O)[C@H](C)N(C)C1=O [Compound 1405] ({CH2CO}-[Dap][4Pal]DWV[Bip]I[NMeA][dL][Dab]LVTCA-NH2; thioether N-14) | 0.03 µM
11 | CC(=O)NCC[C@H](NC(=O)[C@@H]1CSCC(=O)N[C@@H](Cc2ccncc2)C(=O)N[C@@H](Cc2ccc(OCC(=O)O)cc2)C(=O)N[C@@H](CC(=O)O)C(=O)N[C@@H](Cc2cccc(C)c2)C(=O)N[C@@H](Cc2ccc(C(=O)O)cc2)C(=O)N[C@@H](Cc2ccc(-c3ccccc3)cc2)C(=O)N[C@@H](Cc2ccc(OCC(=O)O)cc2)C(=O)N(C)[C@@H](C)C(=O)N[C@H](CC(C)C)C(=O)N[C@@H](CCN)C(=O)N[C@@H](CC2CCCCC2)C(=O)N[C@@H](C(C)(C)O)C(=O)N[C@@H](Cc2cnc[nH]2)C(=O)N1)C(N)=O [Compound 2162] ({CH2CO}-[4Pal]Y(Carboxymethyl)D[Phe(3-Me)][Phe(4-COOH)][Bip]Y(Carboxymethyl)[NMeA][dL][Dab][Cha][Val(3-OH)]HC[Dab](Ac)-NH2; thioether N-14) | 0.02 µM
12 | CCNC(=O)[C@H](CCN)NC(=O)[C@@H]1CSCC(=O)N[C@@H](Cc2ccc(C(N)=O)cc2)C(=O)N[C@@H](Cc2ccc(OCC(=O)O)cc2)C(=O)N[C@@H](CC(=O)O)C(=O)N[C@@H](Cc2cccc(C)c2)C(=O)N[C@@H](Cc2ccc(OCC(=O)O)cc2)C(=O)N[C@@H](Cc2ccc(-c3ccccc3)cc2)C(=O)N[C@@H](Cc2ccc(OCC(=O)O)cc2)C(=O)N(C)[C@@H](C)C(=O)N[C@H](CC(C)C)C(=O)N[C@@H](CCN)C(=O)N[C@@H](CC2CCCCC2)C(=O)N[C@@H](C(C)C)C(=O)N[C@@H]([C@@H](C)O)C(=O)N1 [Compound 1857] ({CH2CO}-[Phe(4-CONH2)]Y(Carboxymethyl)D[Phe(3-Me)]Y(Carboxymethyl)[Bip]Y(Carboxymethyl)[NMeA][dL][Dab][Cha]VTC[Dab]-NHEt; thioether N-14) | 0.01 µM
13 | CC(C)C[C@@H]1NC(=O)[C@H](CCCCN)NC(=O)[C@@H](CC(C)C)NC(=O)[C@H](C)N(C)C(=O)[C@H](Cc2cnc[nH]2)NC(=O)[C@H](Cc2ccc(-c3ccccc3)cc2)NC(=O)[C@H](C(C)C)NC(=O)[C@H](Cc2c[nH]c3ccccc23)NC(=O)[C@H](CC(=O)O)NC(=O)[C@H](Cc2ccc(O)cc2)NC(=O)[C@H](CC(N)=O)NC(=O)CSC[C@@H](C(=O)NCC(N)=O)NC(=O)[C@H](CO)NC(=O)[C@H](C(C)C)NC1=O [Compound 1483] ({CH2CO}-NYDWV[Bip]H[NMeA][dL]KLVSCG-NH2; thioether N-14) | 0.06 µM
14 | CC(C)C[C@@H]1NC(=O)[C@H](Cc2c[nH]c3ccccc23)NC(=O)[C@H](CC(=O)O)NC(=O)[C@H](Cc2ccc(C(=O)O)cc2)NC(=O)[C@H](Cc2cccnc2)NC(=O)CSC[C@@H](C(=O)N[C@@H](C)C(N)=O)NC(=O)[C@H](CO)NC(=O)[C@H](C(C)C)NC(=O)[C@H](CC(C)C)NC(=O)[C@H](CCCCN)NC(=O)[C@@H](C)NC(=O)[C@H](C)N(C)C(=O)[C@H](CCC(=O)O)NC(=O)[C@H](Cc2ccc(-c3ccccc3)cc2)NC1=O [Compound 1761] ({CH2CO}-[3Pal][Phe(4-COOH)]DWL[Bip]E[NMeA][dA]KLVSCA-NH2; thioether N-14) | 0.03 µM
15 | Cc1cccc(C[C@@H]2NC(=O)[C@H](CC(=O)O)NC(=O)[C@H](Cc3ccc(O)cc3)NC(=O)[C@H](CN)NC(=O)CSC[C@@H](C(=O)N[C@@H](C)C(N)=O)NC(=O)[C@H]([C@@H](C)O)NC(=O)[C@H](C(C)C)NC(=O)[C@H](CC(C)C)NC(=O)[C@H](CCN)NC(=O)[C@@H](CC(C)C)NC(=O)[C@H](C)N(C)C(=O)[C@H](C(C)C)NC(=O)[C@H](Cc3ccc(-c4ccccc4)cc3)NC(=O)[C@H](C(C)C)NC2=O)c1 [Compound 1428] ({CH2CO}-[Dap]YD[Phe(3-Me)]V[Bip]V[NMeA][dL][Dab]LVTCA-NH2; thioether N-14) | 0.04 µM
